Results on two compounds are retold here after patent US20050260748A1, “Adult stem cells and uses thereof” (Michigan State University, priority 2004, published 2005).

Data set [1] has as its system mesenchymal stem cells (adipose stem cells). Description: Effect of lovastatin on formation of calcified ECM during osteogenic differentiation of adipose stem cells. The format is cell-based, human. Here is the method: Adipose stem cells were tested for their ability to differentiate into osteocytes by culturing the stem cells in a medium composed of a modified MEM (Chang et al. (1981) Somatic Cell Genetics 7: 235) with 10% FBS and supplemented with 0.1 μM dexamethasone, 50 μM L-ascorbate-2-phosphate, and 10 mM […] disodium for about two to four weeks. Osteogenesis was identified by the presence of calcified extracellular matrix (ECM) in unstained cells (FIG. 32(a)) or using Von Kossa staining (FIG. 32(b)), the quantitative measurement of calcium in calcified ECM (Zuk et al. (2001) Tissue Engineering 7: 211), and the quantitative measurement of calcium in culture medium.
Osteoporosis is a disorder that occurs when the amount of bone removed from the skeleton by bone-resorbing osteoclasts exceeds the amount of bone formed by osteoblasts. Statins may decrease bone resorption by preventing osteoclast activation that is mediated by farnesyl-pp and geranylgeranyl-pp (Cruz et al., (2002) Cleveland Clinic J. Med. 69:277-288). Experiments were performed to test the effect of lovastatin on the formation of calcified ECM using adipocyte cells that were differentiated into osteocytes as described supra. […]

The next data set relates to L1SV1A1 cells. Description: Albumin expression by immunostaining in immortal liver cell line cultured with hepatocyte growth factor. The settings on record: HGF 20 ng/ml in modified Eagle's MEM with high calcium; days after initiation of induction. The format is cell-based, human. As to the method:
Both immunostaining and Western blotting were used to characterize gene expression for clonally derived liver cell culture. For immunostaining, the cells grown in 35 mm plates were washed with phosphate-buffered saline (PBS) and fixed with 4% paraformaldehyde in PBS. After rinsing with PBS, the cells were permeabilized (0.5% Triton® X-100, 2% BSA, and 0.05% NaN3 in PBS) for 10 minutes. The cells were then incubated with the primary antibody diluted to the required concentration in PBS/Triton® X-100/BSA overnight at room temperature. After rinsing with PBS, the cells were incubated with a secondary antibody conjugated with FITC or Cy3 in PBS/Triton/BSA buffer for 1 hour at room temperature. […] After thoroughly washing the cells with PBS, the phase image and fluorescence of cells was observed and recorded using a Nikon Elipse TE 300 microscope connected to a digital camera and computer. […]
Furthermore, cells of the immortal liver cell line L1SV1A1, derived from HL1-1 (described infra), that were cultured in the modified Eagle's MEM (Chang et al. (1981) Somat. Cell Genet. 7: 235-53) containing hepatocyte growth factor (HGF) (He et al. (2003) Differentiation 71: 281-90) (20 ng/ml) expressed the hepatocyte protein, albumin, as detected by immunostaining (FIGS. 21(a)-21(c)). […]

With `CC[C@H](C)C(=O)O[C@H]1C[C@@H](C)C=C2C=C[C@H](C)[C@H](CC[C@@H]3C[C@@H](O)CC(=O)O3)[C@H]21` [lovastatin], the “formation of calcified ECM (microscopic inspection)” value in data set [1] (0.2 μM lovastatin added with osteogenic medium, compared to induced control cultures without lovastatin) is on record as “significantly less formation of calcified ECM”. Further, the total calcium entry in data set [1] (0.2 μM lovastatin in osteogenic medium vs induced control, FIG. 35) is “confirmed this observation”.

“hepatocyte growth factor: hepatocyte growth factor (HGF), used as hepatocyte differentiation agent”: the “expression of the hepatocyte protein albumin (immunostaining)” value with L1SV1A1 cells is listed as “detectable at 33 days but not at 22 days”.
